From patent US11498920B2, “4-(1H-imidazol-5-yl)-1H-pyrrolo[2, 3-b] pyridines for use in the treatment of leukaemias, lymphomas and solid tumors” (MASARYKOVA UNIVERZITA, priority 2018, dated 2022) come the findings set out here.

For one assay, the system named is primary CLL cells. Briefly: Cytotoxicity, TMRE flow cytometry viability, primary CLL cells (Example II.1). The conditions noted are these: Homo sapiens, CLL cell, 6 hours, TMRE positive cells normalized to control, ratio to PF670462, <1 = higher cytotoxicity than PF670462, read-out: Viability of cells, Compound of formula I (100 μM), relative to PF670462 (100 μM), CLL primary cells. Type of assay: cell-based. Here is the method: (§1) The leukemia and lymphoma-derived cell lines [MEC-1 cell line (derived from chronic lymphocytic leukemia—CLL), Nalm-16 (acute lymphocytic leukemia—ALL), K562 (chronic myeloid leukemia—CML), HL-60 (acute myeloid leukemia—AML), Maver-1 and Mino (mantle cell lymphoma—MCL), BL-41 (Burkitt lymphoma—BL), WSU-NHL (follicular lymphoma—FL), SUDHL (diffuse large B-cell lymphoma—DLBCL)], primary CLL cells and nonmalignant control primary cells were cultured in suspension in flasks under the following conditions: RPMI 1640 medium (Hyclone) supplemented with 10% fetal bovine serum (FBS, Gibco) and 1% penicillin/streptomycin (Life Technologies), 37° C., 5% CO2 and 95% relative humidity, with optimal culture cell density 5×10^6 cells/mL in case of primary cells and 0.5-1×10^6 cells/mL in case of cell lines. The adherent cell lines [A375 (derived from malignant melanoma), MDA-MB-231 and MCF-7 (breast cancer), MIA-PA-CA and PANC1 (pancreatic cancer), PC3 (prostate cancer), OVCAR4 (ovarian cancer) and HEPG2 (hepatocellular carcinoma)] were cultured on plates under the same conditions using RPMI1640 or DMEM medium (Gibco) according to instructions provided by the distributor (DSMZ/ATCC).
(§2) Cytotoxicity of compounds of formula I was tested in two models representative for leukemia (primary CLL cells) and lymphoma (Maver-1 cells). The primary CLL cells and Maver-1 cells (MCL-derived) were incubated with inhibitors at 100 μM concentration or corresponding amount of solvent (DMSO, Sigma Aldrich) as 0.1×10^6 cells/200 μl per well in a 96-well plate. Experiments were performed in technical duplicates. Viability of cells was assessed after 6 hours in case of primary CLL cells and after 24 hours in case of Maver-1 cells.
(§3) Apoptosis-induced reduction of mitochondrial potential is detected as lower TMRE fluorescence. […] Relative values are presented, showing ratio to the effect of PF670462 (as the closest prior art). Relative value <1 indicates a higher cytotoxicity than PF670462.
(In general: Flow cytometry measures light scatter and fluorescence of single cells or particles in a stream.)

Assay [1] concerns Maver-1 cells (mantle cell lymphoma). Kind of assay: Cytotoxicity, TMRE flow cytometry viability, Maver-1 cells (Example II.1). Format: cell-based. The conditions noted are these: Homo sapiens, Maver1, 24 hours, TMRE positive cells normalized to control, ratio to PF670462, <1 = higher cytotoxicity than PF670462, read-out: Viability of cells, Compound of formula I (100 μM), relative to PF670462 (100 μM), Maver-1 cells (mantle cell lymphoma). As to the method:
as §1, §2, §3

In general, viability refers to a read-out of living cells in per cent, often relative to untreated cells. `CC(=O)N[C@H]1CC[C@@H](n2cnc(-c3ccc(F)cc3)c2-c2ccnc3[nH]ccc23)CC1` [Preparative Example 75, N-(cis-4-(4-(4-fluorophenyl)-5-(1H-pyrrolo[2,3-b]pyridin-4-yl)-1H-imidazol-1-yl)cyclohexyl)acetamide]: the viability at 100 µM worked out at 83% in the assay on primary CLL cells and 66% in assay [1].

Consider `Fc1ccc(-c2ncn(CCCOC(F)(F)F)c2-c2ccnc3[nH]ccc23)cc1` [Preparative Example 80], for which the viability at 100 µM with primary CLL cells was 49%; in assay [1], 42%.

As to `Fc1ccc(-c2ncn(Cc3cccs3)c2-c2ccnc3[nH]ccc23)cc1` [Preparative Example 84, 4-(4-(4-fluorophenyl)-1-(thiophen-2-ylmethyl)-1H-imidazol-5-yl)-1H-pyrrolo[2,3-b]pyridine], the viability at 100 µM with primary CLL cells came to 48%; in assay [1], 8%.

Take `Fc1ccc(-c2ncn(Cc3ccc(OC(F)(F)F)cc3)c2-c2ccnc3[nH]ccc23)cc1` [Preparative Example 85]: the results for the viability at 100 µM (with primary CLL cells; in assay [1]) were 1% and 4%, respectively.

In the case of `Fc1ccc(-c2ncn(CCc3ccccc3)c2-c2ccnc3[nH]ccc23)cc1` [Preparative Example 87, 4-(4-(4-fluorophenyl)-1-phenethyl-1H-imidazol-5-yl)-1H-pyrrolo[2,3-b]pyridine], the viability at 100 µM worked out at 10% in the assay with primary CLL cells and 3% in assay [1].

As for `Fc1ccc(-c2ncn(CC3CCCCC3)c2-c2ccnc3[nH]ccc23)cc1` [Preparative Example 88, 4-(1-(cyclohexylmethyl)-4-(4-fluorophenyl)-1H-imidazol-5-yl)-1H-pyrrolo[2,3-b]pyridine], the results for the viability at 100 µM (in the assay on primary CLL cells; in assay [1]) were 15% and 5%, respectively.

For the compound `CN(C)[C@H]1C[C@@H](Cn2cnc(-c3ccc(F)cc3)c2-c2ccnc3[nH]ccc23)C1` [Preparative Example 89], the viability at 100 µM in the assay on primary CLL cells came out at 59%; in assay [1], 70%.

Turning to `CN(C)[C@H]1CC[C@@H](n2cnc(-c3ccc(F)cc3)c2-c2ccnc3[nH]ccc23)CC1` [Preparative Example 90], the figures for the viability at 100 µM (in the assay with primary CLL cells; in assay [1]) were 23% and 52%, respectively.

Take `CN(C)CCS(=O)(=O)N[C@H]1CC[C@@H](n2cnc(-c3ccc(F)cc3)c2-c2ccnc3[nH]ccc23)CC1` [Preparative Example 98, 2-(dimethylamino)-N-((1R,4s)-4-(4-(4-fluorophenyl)-5-(1H-pyrrolo[2,3-b]pyridin-4-yl)-1H-imidazol-1-yl)cyclohexyl)ethane-1-sulfonamide]: the viability at 100 µM came to 16% in the assay with primary CLL cells and 3% in assay [1].

In the case of `CN(C)CCCS(=O)(=O)N[C@H]1CC[C@@H](n2cnc(-c3ccc(F)cc3)c2-c2ccnc3[nH]ccc23)CC1` [Preparative Example 100, 3-(dimethylamino)-N-((1R,4s)-4-(4-(4-fluorophenyl)-5-(1H-pyrrolo[2,3-b]pyridin-4-yl)-1H-imidazol-1-yl)cyclohexyl)propane-1-sulfonamide], the viability at 100 µM was 1% in the assay on primary CLL cells and 0% in assay [1].

Turning to `Cc1nc(Cn2cnc(-c3ccc(F)cc3)c2-c2ccnc3[nH]ccc23)cs1` [Preparative Example 108, 4-((4-(4-fluorophenyl)-5-(1H-pyrrolo[2,3-b]pyridin-4-yl)-1H-imidazol-1-yl)methyl)-2-methylthiazole], the viability at 100 µM was determined as 74% with primary CLL cells and 82% in assay [1].

For the compound `Fc1ccc(-c2ncn(Cc3cc[nH]n3)c2-c2ccnc3[nH]ccc23)cc1` [Preparative Example 109, 4-(1-((1H-pyrazol-3-yl)methyl)-4-(4-fluorophenyl)-1H-imidazol-5-yl)-1H-pyrrolo[2,3-b]pyridine], the viability at 100 µM with primary CLL cells stood at 87%; in assay [1], 31%.

With `Fc1ccc(-c2ncn(CC3CNCCO3)c2-c2ccnc3[nH]ccc23)cc1` (centres unmarked) [Preparative Example 114, 2-((4-(4-fluorophenyl)-5-(1H-pyrrolo[2,3-b]pyridin-4-yl)-1H-imidazol-1-yl)methyl)morpholine], the viability at 100 µM came out at 78% in the assay on primary CLL cells and 27% in assay [1].

For the compound `CN(C)[C@H]1C[C@H](n2cnc(-c3ccc(F)cc3)c2-c2ccnc3[nH]ccc23)C1` [Preparative Example 124, (1S,3r)-3-(4-(4-fluorophenyl)-5-(1H-pyrrolo[2,3-b]pyridin-4-yl)-1H-imidazol-1-yl)-N,N-dimethylcyclobutan-1-amine], the viability at 100 µM in the assay on primary CLL cells came to 55%; in assay [1], 53%.

Regarding `CN(C)[C@H]1CC[C@H](n2cnc(-c3ccc(F)cc3)c2-c2ccnc3[nH]ccc23)CC1` [Preparative Example 125, (1S,4r)-4-(4-(4-fluorophenyl)-5-(1H-pyrrolo[2,3-b]pyridin-4-yl)-1H-imidazol-1-yl)-N,N-dimethylcyclohexan-1-amine], the viability at 100 µM with primary CLL cells was determined as 28%; in assay [1], 26%.

As for `CN1CCC(Cn2cnc(-c3ccc(F)cc3)c2-c2ccnc3[nH]ccc23)C1` (centres unmarked) [Preparative Example 129, 4-(4-(4-fluorophenyl)-1-((1-methylpyrrolidin-3-yl)methyl)-1H-imidazol-5-yl)-1H-pyrrolo[2,3-b]pyridine], the viability at 100 µM in the assay with primary CLL cells came to 78%; in assay [1], 86%.

For the compound `Fc1ccc(-c2ncn(C3CCCCC3)c2-c2ccnc3[nH]cc(Br)c23)cc1` [Preparative Example 134, 3-bromo-4-(1-cyclohexyl-4-(4-fluorophenyl)-1H-imidazol-5-yl)-1H-pyrrolo[2,3-b]pyridine], the viability at 100 µM with primary CLL cells was 22%; in assay [1], 1%.

On to `Fc1ccc(-c2nc(Br)n(C3CCCCC3)c2-c2ccnc3[nH]ccc23)cc1` [Preparative Example 135, 4-(2-bromo-1-cyclohexyl-4-(4-fluorophenyl)-1H-imidazol-5-yl)-1H-pyrrolo[2,3-b]pyridine], for which the results for the viability at 100 µM (in the assay on primary CLL cells; in assay [1]) were 9% and 0%, respectively.

Consider `CSc1nc(-c2ccc(F)cc2)c(-c2ccnc3[nH]ccc23)n1C1CCCCC1` [Preparative Example 136, 4-(1-cyclohexyl-4-(4-fluorophenyl)-2-(methylthio)-1H-imidazol-5-yl)-1H-pyrrolo[2,3-b]pyridine], for which the results for the viability at 100 µM (with primary CLL cells; in assay [1]) were 47% and 0%, respectively.

In the case of `CN1CCC(Cn2cnc(-c3ccc(F)c(Cl)c3)c2-c2ccnc3[nH]ccc23)CC1` [Preparative Example 141, 4-(4-(3-chloro-4-fluorophenyl)-1-((1-methylpiperidin-4-yl)methyl)-1H-imidazol-5-yl)-1H-pyrrolo[2,3-b]pyridine], the viability at 100 µM in the assay on primary CLL cells stood at 43%; in assay [1], 0%.

Consider `CN(C)[C@H]1CC[C@H](n2cnc(-c3ccc(F)c(Cl)c3)c2-c2ccnc3[nH]ccc23)CC1` [Preparative Example 142, (1R,4r)-4-(4-(3-chloro-4-fluorophenyl)-5-(1H-pyrrolo[2,3-b]pyridin-4-yl)-1H-imidazol-1-yl)-N,N-dimethylcyclohexan-1-amine], for which the viability at 100 µM in the assay with primary CLL cells is 5%; in assay [1] it was 0%.

For the compound `Fc1ccc(-c2ncn(C3CCCCC3)c2-c2ccnc3[nH]cc(Cl)c23)cc1` [Preparative Example 144, 3-chloro-4-(1-cyclohexyl-4-(4-fluorophenyl)-1H-imidazol-5-yl)-1H-pyrrolo[2,3-b]pyridine], the viability at 100 µM in the assay with primary CLL cells was 36%; in assay [1], 1%.

On to `CC(c1ccccc1)n1cnc(-c2ccc(F)cc2)c1-c1ccnc2[nH]ccc12` (centres unmarked) [Preparative Example 146, 4-(4-(4-fluorophenyl)-1-(1-phenylethyl)-1H-imidazol-5-yl)-1H-pyrrolo[2,3-b]pyridine], for which the viability at 100 µM in the assay with primary CLL cells turned out to be 16%; in assay [1] it was 0%.

`Fc1ccc(-c2ncn(Cc3c[nH]nn3)c2-c2ccnc3[nH]ccc23)cc1` [Preparative Example 153, 4-(1-((1H-1,2,3-triazol-4-yl)methyl)-4-(4-fluorophenyl)-1H-imidazol-5-yl)-1H-pyrrolo[2,3-b]pyridine]: the results for the viability at 100 µM (in the assay on primary CLL cells; in assay [1]) were 117% and 87%, respectively.

In the case of `Fc1ccc(-c2nc(Cl)n(C3CCCCC3)c2-c2ccnc3[nH]ccc23)cc1` [Preparative Example 155, 4-(2-chloro-1-cyclohexyl-4-(4-fluorophenyl)-1H-imidazol-5-yl)-1H-pyrrolo[2,3-b]pyridine], the results for the viability at 100 µM (in the assay with primary CLL cells; in assay [1]) were 1% and 0%, respectively.
